Source: patent US5202243A, “Method of hydroxylating 3-[2-(benzoxazol-2-yl)ethyl]-5-ethyl-6-methyl-2-(1H)-pyridinone by incubation with liver slices” (Merck & Co., Inc., priority 1992, dated 1993)

What was measured:
[1] = Incubation with rat liver slices (metabolism); format: in vitro ADME; conditions: four hours
Description: Ethyl acetate extraction gave a recovery of ~70% of the tritiated material, while ~25% (~9 HPLC peaks) remained in the aqueous residue.

[2] = target: T1, recombinant HIV reverse transcriptase (HIV RTR) (Human immunodeficiency virus type 1 group M subtype B, UniProt P04585); test: Reverse transcriptase assay (incorporation of tritiated dGMP into acid-precipitable cDNA); format: biochemical; conditions: [dGTP] and poly r(C).oligo d(G)12-18 at approx. Km; 37° C., 45 minutes; read-out: calculated IC50
T1 construct: recombinant HIV reverse transcriptase (HIV RTR)
Protocol: The assay measures the incorporation of tritiated deoxyguanosine monophosphate by recombinant HIV reverse transcriptase (HIV RTR) (or other RT) into acid-precipitable cDNA at the Km values of dGTP and poly r(C).oligo d(G)12-18.
Thirty uL of a reaction mixture containing equal volumes of: 500 mM Tris.HCl (pH 8.2), 300 mM MgCl2, 1200 mM KCl, 10 mM DTT, 400 μg/mL poly r(c).oligo d(G) [prepared by dissolving 1.5 mg (25 U) poly r(C).oligo d(G) in 1.5 ml sterile distilled H2 O and diluting to 400 μg/ml], 0.1 μCi/μl [^3 H] dGTP, 160 μM dGTP, were added to 10 μl sterile distilled H2 O, and 2.5 μl of potential inhibitor. An aliquot of 10 μL of 5 nM purified HIV RTR was added to initiate the reaction. The mixture was incubated at 37° C. for 45 minutes.
After incubation is complete, the tubes were cooled in ice for 5 minutes. Ice-cold 13% TCA containing 10 mM NaPPi (200 μl) are added and the mixture incubated on ice for 30 minutes. The precipitated cDNA is removed by filtration using presoaked glass filters [TCA, NaPPi ]. The precipitate is then washed with 1N HCl, 10 mM NaPPi.
The filter discs are then counted in a scintillation counter.
Under these conditions [dGTP] and poly r(C).oligo d(G)12-18 each are approximately equal to the appropriate Km value. Approximately 5-6,000 cpm of [^3 H] GMP are incorporated into acid-precipitable material. The RT reaction is concentration- and time-dependent.

CCc1cc(CCc2nc3ccccc3o2)c(O)nc1C [compound (II), 3-[2-(Benzoxazol-2-yl)ethyl]-5-ethyl-6-methyl-2-(1H)-pyridinone]
metabolised at 4 h ([1]; tritiated compound 14.18 μmol, rat liver slices 6.1 g, Williams Medium E, pH 7.4, 37° C.): ~32%

CCc1cc(CCc2nc3ccccc3o2)c(=O)[nH]c1CO [compound (I), 3-[2-(benzoxazol-2-yl)ethyl]-5-ethyl-6-hydroxymethyl-2 (1H)-pyridinone]
radioactive HPLC peak, % of the total metabolites ([1]; ethyl acetate extract of the rat liver slice incubation of the parent compound): 6% | IC50 [2]: ~44 nM
